What all share (type): binding, murine
The target in one assay is T1, PDZD7 P1P2 G103R (Mus musculus, UniProt E9Q9W7, G103R).
T1 construct: PDZ2ext (206-313), P1P2 (81-313); GST (followed by TEV site) (N, cleaved yes); made in house; host or cells: E. coli BL21 DE3
The assay can be described thus: Fluorescence titration of P1P2 G103R. How it is done: Fluorescence titrations were performed on a Jasco V-730 spectrometer using quartz cell 109.004F-QS (Hellma Analytics) with an optical path of 10 mm and with thick side to reduce the inner filter effect. PDZ1ext and P1P2 were prepared in Phosphate Buffer pH 6.6 (50 mM) at 6 and 2 µM respectively, while PDZ2ext was prepared in Tris HCl pH 7.5 (50 mM) at 5 µM. Variations in the quantum yield of fluorescence of tryptophans from the sample were monitored upon progressive addition of buffered ADGRV1pbm peptide. After peptide addition, the sample is homogenized by in-spectrometer magnet agitation for 30 s. The sample is left to rest for an additional 60 s before measurement. Excitation is set at 295 nm and fluorescence was measured at the maximum emission wavelength (346-349 nm) of the unbound form with a 5 nm bandwidth for both. Titration curves were fitted using the following formula: y = Fp∗p0+(Fx-Fp)∗0.5∗(R∗I0+(1-R)∗x + K-((R∗I0+(1-R)∗x + K)^2-4∗R∗(I0-x)∗x)^1/2), where p0 is the initial protein concentration, I0 the peptide stock concentration, R the p0/I0 ratio, x the volume of added peptide in µl, Fp the fluorescence of PDZ constructs, Fx the fluorescence of the complex, and K the Kd. The values of p0, I0 and R are kept constant.
We characterized the potential effect of the two substitutions on the interaction with ADGRV1pbm using a panel of techniques. […]

A further assay concerns the target T2, PDZD7 PDZ1ext G103R (Mus musculus, UniProt E9Q9W7, G103R).
T2 construct: PDZ1 (81-167), PDZ1ext (81-192); GST (followed by TEV site) (N, cleaved yes); made in house; host or cells: E. coli BL21 DE3
As to the kind of experiment: NMR titration of PDZ1ext G103R. The conditions noted are these: Tris HCl pH 7.5 (50 mM), 25°C. How it is done:
(§1) All experiments were recorded at 25°C on a Bruker 800 MHz spectrometer equipped with a triple resonance ^1H{^13C/^15N} cryoprobe. The ^1H, ^15 N and ^13C backbone resonances assignment of PDZ1ext was carried out using 3D HNCA, HNCACB, HNCO, HNCOCA experiments (Tris HCl buffer adjusted to pH 6). The 2D ^1H-^15N HSQC spectra used to compare PDZ1, PDZ1ext, PDZ2 and PDZ2ext were recorded in Tris HCl pH 7.5 (50 mM). The 2D ^1H-^15N HSQC spectra used to compare PDZ1ext, PDZ2ext and P1P2 were recorded in Phosphate Buffer pH 6.5 (50 mM). Titration experiments of PDZ1 (WT), PDZ1ext (WT) and PDZ1ext (G103R) against ADGRV1pbm peptide were performed in Tris HCl pH 7.5 (50 mM). Averaged Chemical Shifts Perturbations (CSP) were calculated as: Δδavg = ((Δδ(^1H))^2+(Δδ(^15N)*0.159)^2)^½. […]
We characterized the potential effect of the two substitutions on the interaction with ADGRV1pbm using a panel of techniques. First, we confirmed by NMR that PDZ1ext G103R is well-folded, with significant perturbations (CSPs >0.04 ppm) only detected for residues spatially close to the G103R mutation (Supplementary Figure S10). […] We calculated Rg = 28 Å and Dmax = 118.2 Å for the mutant tandem without ligand, and Rg = 27.7 Å and Dmax = 123.6 Å in presence of ADGRV1pbm peptide. […]

For a further assay, the target named is T3, PDZD7 PDZ1 (81-167) (Mus musculus, UniProt E9Q9W7).
T3 construct: (Uniprot entry E9Q9W7-1); PDZ1 (81-167); GST (followed by TEV site) (N, cleaved yes); made in house; host or cells: E. coli BL21 DE3
T3 sequence (E9Q9W7 81-167): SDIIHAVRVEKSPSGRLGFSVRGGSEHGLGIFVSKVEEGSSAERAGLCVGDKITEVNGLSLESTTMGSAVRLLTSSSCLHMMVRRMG
The assay can be described thus: NMR titration of PDZ1 with ADGRV1 ligands. The conditions noted are these: NMR titration (1H-15N HSQC CSP), Tris HCl pH 7.5 (50 mM), 25°C; SD of Kd over at least ten shifting peaks. As for the experimental part: as §1
We monitored the interaction between PDZD7 constructs and a peptide (ADGRV1pbm) corresponding to the last 13 residues of ADGRV1, encompassing its PBM (sequence VELRRIPIADTHL-COOH; PBM underlined). We measured apparent Kd values of our constructs towards ADGRV1pbm using several biophysical methods (NMR, fluorescence, MicroScale Thermophoresis (MST)) (Table 1; Supplementary Figure S3–S5). […]

Where no end group is shown, it is not given here.

T1 sequence (E9Q9W7 81-313 G103R): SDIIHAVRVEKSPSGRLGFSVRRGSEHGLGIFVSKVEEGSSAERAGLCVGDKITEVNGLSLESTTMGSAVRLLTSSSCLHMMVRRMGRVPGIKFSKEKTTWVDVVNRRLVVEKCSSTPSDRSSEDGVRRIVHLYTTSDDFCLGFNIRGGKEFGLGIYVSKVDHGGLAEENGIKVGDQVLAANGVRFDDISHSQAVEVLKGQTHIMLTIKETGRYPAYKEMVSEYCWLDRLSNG
T2 sequence (E9Q9W7 81-192 G103R): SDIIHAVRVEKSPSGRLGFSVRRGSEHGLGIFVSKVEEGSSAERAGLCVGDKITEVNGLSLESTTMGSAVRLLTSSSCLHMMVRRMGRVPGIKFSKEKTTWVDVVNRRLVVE

On to VELRRIPIADTHL [ADGRV1pbm], for which the values for the Kd on PDZD7 P1P2 G103R, on PDZD7 PDZ1ext G103R and on PDZD7 PDZ1 (81-167) were 1900 ± 400 nM, 1.19 mM and 1.31 mM, respectively.

(Values after paper PMC9274004, “Deciphering the Molecular Interaction Between the Adhesion G Protein-Coupled Receptor ADGRV1 and its PDZ-Containing Regulator PDZD7” (Frontiers in Molecular Biosciences, 2022).)
